System: GFP-inserted Type V collagen α1 expression MC3T3-E1
Test: Fibrogenesis inhibitory experiment in stress culture in multi-well plates
Type: cell-based, mouse
Details: 1.0 mg/ml added when switched to stress culture; observed after 28 days; compared to wells without Pirfenidone; FIG. 18
Experimental: Normal cultivation was performed using the following materials. Cultivations using MC3T3-E1 and Balb3T3, respectively, were performed in αMEM medium containing 10% serum, and in MEM medium containing 10% serum, at 37° C. and 5% CO2. • Serum: Fetal bovine serum (Gibco) • Medium: Minimum Essential Medium Alpha (Gibco) • Medium: Minimum Essential Medium (Gibco) • Dish for culturing cells: Cell culture dish 60×15 mm (Falcon)
The following flasks were filled with medium for shaking culture. • Cell-culture flasks: 25 mL (Falcon) of Cell culture flask (12.5 cm^2 slant neck/plug seal)
The shaking culture was performed using a mini-shaker SHM-2002 (LMS) at a shaking angle of 7° and a rotational speed of 20 rpm using a sunflower shaking method.
OLYMPUS LX73 was used for fluorescent microscopy. The following filter sets were used for fluorescence imaging. • Green Fluorescence: U-EGFP (OLYMPUS), Ex: 470/20, Em: 518/45 • Red fluorescence: BrightLine®SpGold-B-000-ZERO (Semrock), Ex: 534/20, Em: 572/28 • Near Infrared Fluorescence: BrightLine®Cy5.5-B-000 (Semrock), Ex: 655/40, Em: 716/40
The GFP-inserted Type V collagen α1 expression MC3T3-E1 was cultured in multi-well plates and when switched to stress cultures capable of inducing collagen secretion, 1.0 mg/ml of Pirfenidone was added and compared to wells without such addition of Pirfenidone. […]

Structure (SMILES): Cc1ccc(=O)n(-c2ccccc2)c1 [Pirfenidone]
- extracellular collagen fiber formation (green fluorescent fiber structures): inhibited
